Blank lines part the entries; values can stand above or below the compound they belong to. Starred links: 1 amine or outer side, 2 acyl side, 3 side chain; linkers in the order of their positions; H or OH if unused. Non-standard residues stand in square brackets, D forms with d. Residues, ends and D or L forms follow the SMILES beside them. *: point of attachment. X1 = O=C([C@H](Cc1ccc(Cc2ccccc2)cc1)N[*:1])[*:2]; Acetyl(2-naphthyloxy) = O=C(COc1ccc2ccccc2c1)*; Propanoyl(3-(3-pyridyl)) = O=C(CCc1cccnc1)*; Bip = N[C@@H](Cc1ccc(-c2ccccc2)cc1)C(=O)O; αMeW = C[C@](N)(Cc1c[nH]c2ccccc12)C(=O)O; 2Nal = N[C@@H](Cc1ccc2ccccc2c1)C(=O)O; Acetyl(2-thienyl) = O=C(Cc1cccs1)*; αMeF = C[C@](N)(Cc1ccccc1)C(=O)O; Tic = O=C(O)[C@@H]1Cc2ccccc2CN1
How the values were obtained:
[1] = target: T1, Neuromedin-U receptor 1 (Homo sapiens, UniProt Q9HB89); assay: Agonist activity at human NMUR1 expressed in CHO cells at 1000 nM by calcium mobilization assay relative to control; format: cell-based; conditions: read-out: Activity
T1 sequence (Q9HB89 whole entry): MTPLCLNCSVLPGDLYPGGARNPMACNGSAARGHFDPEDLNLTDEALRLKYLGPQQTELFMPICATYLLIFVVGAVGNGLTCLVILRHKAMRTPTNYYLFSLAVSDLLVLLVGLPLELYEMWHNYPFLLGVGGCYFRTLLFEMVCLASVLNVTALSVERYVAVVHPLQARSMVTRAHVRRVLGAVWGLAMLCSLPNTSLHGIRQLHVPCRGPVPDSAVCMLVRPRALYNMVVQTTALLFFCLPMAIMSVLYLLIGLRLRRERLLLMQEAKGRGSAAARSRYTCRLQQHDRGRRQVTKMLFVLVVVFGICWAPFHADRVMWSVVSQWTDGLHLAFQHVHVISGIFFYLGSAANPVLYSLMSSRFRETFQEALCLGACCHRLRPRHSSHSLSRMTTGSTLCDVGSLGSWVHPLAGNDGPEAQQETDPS

[2] = target: T2, Neuromedin-U receptor 2 (Homo sapiens, UniProt Q9GZQ4); assay: Agonist activity at human NMUR2 expressed in CHO cells at 10 nM by calcium mobilization assay; format: cell-based; conditions: 0.01 µM
[3] = target: T1, Neuromedin-U receptor 1; assay: Agonist activity at human NMUR1 expressed in CHO cells at 10 nM by calcium mobilization assay; format: cell-based; conditions: 0.01 µM
[4] = Selectivity index, ratio of EC50 for agonist activity for human NMUR2 expressed in CHO cells to EC50 for agonist activity for human NMUR1 expressed in CHO cells by calcium mobilization assay; format: cell-based
[5] = target: T1, Neuromedin-U receptor 1; assay: Agonist activity at human NMUR1 expressed in CHO cells assessed as intrinsic activity at 10^-6 to 10^-12 M by calcium mobilization assay relative to control; format: cell-based; conditions: read-out: Intrinsic activity
[6] = Stability of the compound in 25% human serum assessed as residual rate at 50 uM incubated for 10 mins at 37 degreeC; format: ADME, cell-free; conditions: read-out: Stabilty
[7] = target: T2, Neuromedin-U receptor 2; assay: Agonist activity at human NMUR2 expressed in CHO cells at 1000 nM by calcium mobilization assay relative to control; format: cell-based; conditions: read-out: Activity
[8] = target: T1, Neuromedin-U receptor 1; assay: Agonist activity at human NMUR1 expressed in CHO cells at 10 nM by calcium mobilization assay relative to control; format: cell-based; conditions: read-out: Activity
[9] = target: T1, Neuromedin-U receptor 1; assay: Agonist activity at human NMUR1 expressed in CHO cells by calcium mobilization assay; format: cell-based
[10] = Stability of the compound in 25% human serum assessed as intact residual rate at 50 uM incubated for 180 mins at 37 degreeC; format: ADME, cell-free; conditions: read-out: Stabilty
[11] = target: T2, Neuromedin-U receptor 2; assay: Agonist activity at human NMUR2 expressed in CHO cells at 100 nM by calcium mobilization assay; format: cell-based; conditions: 0.1 µM
[12] = target: T1, Neuromedin-U receptor 1; assay: Agonist activity at human NMUR1 expressed in CHO cells at 100 nM by calcium mobilization assay relative to control; format: cell-based; conditions: read-out: Activity
[13] = target: T3, Neuromedin-U receptor 1 (Homo sapiens) (UniProt Q9HB89); assay: Partial agonist activity at human NMUR1 expressed in CHO cells assessed as intrinsic activity at 10^-6 to 10^-12 M by calcium mobilization assay relative to control; format: functional, cell-based; conditions: filed as partial agonist, dose pM 1-1000000
T3 sequence (whole entry): T1 sequence (Q9HB89 whole entry)

[14] = Half life of the compound in 25% human serum; format: ADME, cell-free
[15] = target: T1, Neuromedin-U receptor 1; assay: Partial agonist activity at human NMUR1 expressed in CHO cells by calcium mobilization assay; format: functional, cell-based
[16] = target: T2, Neuromedin-U receptor 2; assay: Agonist activity at human NMUR2 expressed in CHO cells at 10 nM by calcium mobilization assay relative to control; format: cell-based; conditions: read-out: Activity
[17] = Drug metabolism in 25% human serum assessed as M1 metabolite formation at 50 uM incubated for 180 mins at 37 degreeC by HPLC analysis; format: ADME, cell-free; conditions: 3 h
[18] = target: T2, Neuromedin-U receptor 2; assay: Agonist activity at human NMUR2 expressed in CHO cells by calcium mobilization assay; format: cell-based
[19] = Drug metabolism in 25% human serum assessed as M2 metabolite formation at 50 uM incubated for 180 mins at 37 degreeC by HPLC analysis; format: ADME, cell-free; conditions: 3 h

T2 sequence (Q9GZQ4 whole entry): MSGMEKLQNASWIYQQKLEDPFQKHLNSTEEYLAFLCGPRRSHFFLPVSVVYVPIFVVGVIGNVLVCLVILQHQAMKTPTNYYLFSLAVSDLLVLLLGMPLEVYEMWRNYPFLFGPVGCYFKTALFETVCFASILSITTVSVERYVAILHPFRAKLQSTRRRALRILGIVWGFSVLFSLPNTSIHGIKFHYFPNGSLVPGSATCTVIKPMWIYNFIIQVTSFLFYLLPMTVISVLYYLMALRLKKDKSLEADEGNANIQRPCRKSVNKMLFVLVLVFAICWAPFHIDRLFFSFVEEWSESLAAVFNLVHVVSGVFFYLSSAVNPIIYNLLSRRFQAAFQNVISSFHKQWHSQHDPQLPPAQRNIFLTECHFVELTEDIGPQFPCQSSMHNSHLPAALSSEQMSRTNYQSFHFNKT

Compound: N=C(N)NCCC[C@H](NC(=O)[C@@H]1CCCN1C(=O)[C@H](CCCNC(=N)N)NC(=O)[C@H](Cc1ccc(-c2ccccc2)cc1)NC(=O)COc1ccc2ccccc2c1)C(=O)N[C@@H](CC(N)=O)C(N)=O ({Acetyl(2-naphthyloxy)}-[Bip]RPRN-NH2)
- activity at 1 µM [1]: 28%
- Activity [2]: Not Active
- Activity [3]: Not Active

Compound: N=C(N)NCCC[C@H](NC(=O)[C@@H]1CCCN1C(=O)[C@H](CCCNC(=N)N)NC(=O)[C@@H]1Cc2ccccc2CN1C(=O)COc1ccc2ccccc2c1)C(=O)N[C@@H](CC(N)=O)C(N)=O ({Acetyl(2-naphthyloxy)}-[Tic]RPRN-NH2)
- Ratio EC50 [4]: 30
- Emax [5]: 67%
- remaining at 10 min, 50 µM [6]: 64%
- activity at 1 µM [7]: 48%
- activity at 0.01 µM [8]: 30%
- EC50 [9]: 30 nM

Compound: C[C@@](Cc1c[nH]c2ccccc12)(NC(=O)[C@H](Cc1c[nH]c2ccccc12)NC(=O)Cc1cccs1)C(=O)N[C@@H](CCCNC(=N)N)C(=O)N1CCC[C@H]1C(=O)N[C@@H](CCCNC(=N)N)C(=O)N[C@@H](CC(N)=O)C(N)=O ({Acetyl(2-thienyl)}-W[αMeW]RPRN-NH2)
- remaining at 3 h, 50 µM [10]: 39%

Compound: N=C(N)NCCC[C@H](NC(=O)[C@@H]1CCCN1C(=O)[C@H](CCCNC(=N)N)NC(=O)[C@H](Cc1ccccc1)NC(=O)[C@H](Cc1ccc2ccccc2c1)NC(=O)CCc1cccnc1)C(=O)N[C@@H](CC(N)=O)C(N)=O ({Propanoyl(3-(3-pyridyl))}-[2Nal]FRPRN-NH2)
- Intrinsic activity [13]: 71%
- half-life [14]: 20 min
- remaining at 10 min, 50 µM [6]: 35%
- EC50 [15]: 1.7 nM
- activity at 0.01 µM [8]: 61%
- activity at 0.01 µM [16]: 19%

Compound: C[C@@](Cc1ccccc1)(NC(=O)[C@H](Cc1ccc2ccccc2c1)NC(=O)CCc1cccnc1)C(=O)N[C@@H](CCCNC(=N)N)C(=O)N1CCC[C@H]1C(=O)N[C@@H](CCCNC(=N)N)C(=O)N[C@@H](CC(N)=O)C(N)=O ({Propanoyl(3-(3-pyridyl))}-[2Nal][αMeF]RPRN-NH2)
- Activity [2]: Not Active
- Activity [3]: Not Active

More lines, main results first:

- remaining at 10 min, 50 µM [6]: 48%
Compound: COc1ccc(C[C@H](NC(=O)[C@H](Cc2c[nH]c3ccccc23)NC(=O)Cc2cccs2)C(=O)N[C@@H](CCCNC(=N)N)C(=O)N2CCC[C@H]2C(=O)N[C@@H](CCCNC(=N)N)C(=O)N[C@@H](CC(N)=O)C(N)=O)cc1 ({Acetyl(2-thienyl)}-WY(Me)RPRN-NH2)

- remaining at 3 h, 50 µM [10]: 35%
- Activity [11]: Not Active
- remaining at 10 min, 50 µM [6]: 95%
- activity at 0.1 µM [12]: 88%
Compound: N=C(N)NCCC[C@H](NC(=O)[C@@H]1CCCN1C(=O)[C@H](CCCNC(=N)N)NC(=O)[C@H](Cc1ccc(-c2ccccc2)cc1)NC(=O)[C@H](Cc1c[nH]c2ccccc12)NC(=O)Cc1cccs1)C(=O)N[C@@H](CC(N)=O)C(N)=O ({Acetyl(2-thienyl)}-W[Bip]RPRN-NH2)

- remaining at 10 min, 50 µM [6]: 95%
- activity at 0.1 µM [12]: 88%
Compound: N=C(N)NCCC[C@H](NC(=O)[C@@H]1CCCN1C(=O)[C@H](CCCNC(=N)N)NC(=O)[C@H](Cc1ccc(Cc2ccccc2)cc1)NC(=O)[C@H](Cc1c[nH]c2ccccc12)NC(=O)Cc1cccs1)C(=O)N[C@@H](CC(N)=O)C(N)=O ({Acetyl(2-thienyl)}-W[X1]RPRN-NH2)

- remaining at 3 h, 50 µM [10]: 84%
- Emax [5]: 75%
- Drug metabolism [17]: Metabolite_Detected
- EC50 [18]: > 1000 nM
- Drug metabolism [19]: Metabolite_Detected
- activity at 0.01 µM [8]: 59%
- EC50 [9]: 3.2 nM
Compound: N=C(N)NCCC[C@H](NC(=O)[C@@H]1CCCN1C(=O)[C@H](CCCNC(=N)N)NC(=O)[C@H](Cc1ccc(-c2ccccc2)cc1)NC(=O)[C@H](Cc1ccc2ccccc2c1)NC(=O)CCc1cccnc1)C(=O)N[C@@H](CC(N)=O)C(N)=O ({Propanoyl(3-(3-pyridyl))}-[2Nal][Bip]RPRN-NH2)
- Ratio EC50 [4]: > 300

From ChEMBL document CHEMBL4725299, “Design and synthesis of peptidic partial agonists of human neuromedin U receptor 1 with enhanced serum stability” (Bioorg Med Chem Lett, 2020)
